# Measured values from ChEMBL document CHEMBL1201862, “PubChem BioAssay data set” (2004).
# Activity calls are given as the source filed them.
# Assays:
# Leucine aminopeptidase = biological target: T1, Leucine aminopeptidase (Plasmodium falciparum 3D7, UniProt Q8IL11); test: P. falciparum M17LAP inhibitors, primary screen, biochemical, fluorogenic H-Leu-NHMec substrate, 1536-well (AID 1619); type: functional
# T1 sequence (Q8IL11 whole entry): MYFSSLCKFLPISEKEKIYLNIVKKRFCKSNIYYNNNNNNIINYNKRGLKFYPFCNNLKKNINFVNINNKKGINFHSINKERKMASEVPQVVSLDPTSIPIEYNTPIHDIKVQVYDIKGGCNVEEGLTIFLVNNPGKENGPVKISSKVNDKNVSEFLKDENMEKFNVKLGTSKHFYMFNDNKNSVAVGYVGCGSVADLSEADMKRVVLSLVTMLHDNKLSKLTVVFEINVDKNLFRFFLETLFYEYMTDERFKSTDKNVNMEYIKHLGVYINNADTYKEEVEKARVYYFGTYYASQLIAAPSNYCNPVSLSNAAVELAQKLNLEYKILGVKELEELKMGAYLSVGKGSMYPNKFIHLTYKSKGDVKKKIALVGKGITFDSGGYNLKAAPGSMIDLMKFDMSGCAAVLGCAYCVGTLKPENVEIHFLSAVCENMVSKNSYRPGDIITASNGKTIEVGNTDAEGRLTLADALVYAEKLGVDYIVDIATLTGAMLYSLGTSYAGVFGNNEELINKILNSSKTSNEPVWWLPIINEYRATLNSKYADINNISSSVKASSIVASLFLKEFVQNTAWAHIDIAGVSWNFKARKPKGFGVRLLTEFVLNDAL
# Aspartyl aminopeptidase = biological target: T2, Aspartyl aminopeptidase (Plasmodium falciparum 3D7, UniProt Q8I2J3); test: Counterscreen for inhibitors of M1 and M17 aminopeptidases: QFRET-based biochemical high throughput dose response assay for inhibitors of the Plasmodium falciparum M18 Aspartyl Aminopeptidase (PFM18AAP). [Related PubChem assays: 1619 (Screening assay (M17LAP inhibitors).), 1445 (Screening assay (M1AAP inhibitors).)]
# T2 sequence (Q8I2J3 whole entry): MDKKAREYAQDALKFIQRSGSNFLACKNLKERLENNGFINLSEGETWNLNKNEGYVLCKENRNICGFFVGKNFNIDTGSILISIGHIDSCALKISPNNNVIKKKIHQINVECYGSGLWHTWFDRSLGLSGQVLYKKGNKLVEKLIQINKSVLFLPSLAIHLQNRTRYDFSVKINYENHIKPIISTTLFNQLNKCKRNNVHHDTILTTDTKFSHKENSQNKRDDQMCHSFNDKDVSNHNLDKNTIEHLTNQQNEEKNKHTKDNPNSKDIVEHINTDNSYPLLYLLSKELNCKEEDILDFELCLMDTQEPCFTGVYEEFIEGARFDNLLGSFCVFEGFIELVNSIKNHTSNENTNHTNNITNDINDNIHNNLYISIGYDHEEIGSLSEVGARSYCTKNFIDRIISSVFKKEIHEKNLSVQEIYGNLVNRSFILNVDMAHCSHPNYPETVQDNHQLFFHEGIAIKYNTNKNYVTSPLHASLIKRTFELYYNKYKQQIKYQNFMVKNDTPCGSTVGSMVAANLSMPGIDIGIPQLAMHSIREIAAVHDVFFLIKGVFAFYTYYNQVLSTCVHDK
# Procathepsin L = Procathepsin L (Homo sapiens, UniProt P07711); test: CTSL1 protease inhibition – biochemical, QFRET, 1536-well, counter-screen for M1/M17 aminopeptidase inhibitor project, dose response (AID 2214)
# Chain of Procathepsin L (P07711 whole entry): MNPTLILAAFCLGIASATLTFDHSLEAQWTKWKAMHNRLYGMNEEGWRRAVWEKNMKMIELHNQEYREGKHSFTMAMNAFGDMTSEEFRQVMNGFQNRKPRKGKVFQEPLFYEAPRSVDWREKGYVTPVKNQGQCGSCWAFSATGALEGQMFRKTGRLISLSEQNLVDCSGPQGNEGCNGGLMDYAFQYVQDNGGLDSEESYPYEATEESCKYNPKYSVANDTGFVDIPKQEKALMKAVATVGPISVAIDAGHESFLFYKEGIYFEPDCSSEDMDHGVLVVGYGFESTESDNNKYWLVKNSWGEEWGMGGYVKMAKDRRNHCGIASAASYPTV
# Cytochrome P450 2C19 [1] = biological target: T3, Cytochrome P450 2C19 (Homo sapiens, UniProt P33261); test: qHTS Assay for Inhibitors and Substrates of Cytochrome P450 2C19. [Related pubchem assays: 410 ]; type: ADME; settings: read-out: Potency
# T3 sequence (P33261 whole entry): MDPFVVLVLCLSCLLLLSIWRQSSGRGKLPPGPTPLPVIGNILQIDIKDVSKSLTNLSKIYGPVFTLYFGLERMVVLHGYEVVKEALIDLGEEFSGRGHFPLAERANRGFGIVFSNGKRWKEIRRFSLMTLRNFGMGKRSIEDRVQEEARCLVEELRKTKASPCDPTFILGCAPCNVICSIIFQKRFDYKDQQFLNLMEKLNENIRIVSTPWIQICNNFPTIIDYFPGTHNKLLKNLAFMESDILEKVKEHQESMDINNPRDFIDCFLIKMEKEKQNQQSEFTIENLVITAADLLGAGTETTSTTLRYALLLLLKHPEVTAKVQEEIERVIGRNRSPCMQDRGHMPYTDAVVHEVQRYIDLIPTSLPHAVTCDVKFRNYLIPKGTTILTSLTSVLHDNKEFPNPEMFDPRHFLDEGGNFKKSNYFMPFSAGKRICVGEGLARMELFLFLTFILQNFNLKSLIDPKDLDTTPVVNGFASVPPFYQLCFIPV
# Cytochrome P450 2C19 [2] = biological target: T3, Cytochrome P450 2C19; test: Cytochrome panel assay with activity outcomes. Panel member name: p450-cyp2c19 Compounds with AC50 equal or less than 10 uM are considered active; type: functional; settings: read-out: AC50
# Vero [3] = test: mammalian cell viability reduction – secondary assay, cytotoxicity control for West Nile virus antiviral project, dose response (AID 1650); type: functional; settings: Chlorocebus sabaeus
# [4] = biological target: T4, Heat shock factor protein 1 (Mus musculus, UniProt P38532); test: enhancement of HSF1-driven luciferase signal – cell-based, NIH3T3, luminescence, dose retest, confirmation (AID 435004); type: functional;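 also: stress induced by proteasome inhibitor MG132 added 30 min after compound; luciferase reporter driven by HSF1 response element in NIH3T3 cells; actives raise luminescence as potentiators of the MG132 stress response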
# T4 sequence (P38532 whole entry): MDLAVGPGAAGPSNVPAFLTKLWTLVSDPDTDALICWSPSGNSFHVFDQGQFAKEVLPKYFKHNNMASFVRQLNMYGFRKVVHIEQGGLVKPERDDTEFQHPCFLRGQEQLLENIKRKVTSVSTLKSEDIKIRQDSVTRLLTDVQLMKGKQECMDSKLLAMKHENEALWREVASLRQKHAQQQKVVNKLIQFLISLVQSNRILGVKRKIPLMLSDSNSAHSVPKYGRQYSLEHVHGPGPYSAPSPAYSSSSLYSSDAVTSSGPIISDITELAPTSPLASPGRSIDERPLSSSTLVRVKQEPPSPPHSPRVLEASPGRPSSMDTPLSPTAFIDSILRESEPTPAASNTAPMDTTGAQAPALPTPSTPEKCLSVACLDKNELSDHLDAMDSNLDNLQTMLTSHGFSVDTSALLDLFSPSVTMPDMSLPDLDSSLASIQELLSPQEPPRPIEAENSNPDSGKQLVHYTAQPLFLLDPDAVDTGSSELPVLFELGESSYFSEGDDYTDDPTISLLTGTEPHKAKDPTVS
# [5] = biological target: T5, Replicative DNA helicase DnaB (Mycobacterium tuberculosis, UniProt P9WMR3); test: DnaB intein splicing inhibitors, dose response, biochemical, cell-free fluorescence (AID 449749); type: functional
# T5 sequence (P9WMR3 whole entry): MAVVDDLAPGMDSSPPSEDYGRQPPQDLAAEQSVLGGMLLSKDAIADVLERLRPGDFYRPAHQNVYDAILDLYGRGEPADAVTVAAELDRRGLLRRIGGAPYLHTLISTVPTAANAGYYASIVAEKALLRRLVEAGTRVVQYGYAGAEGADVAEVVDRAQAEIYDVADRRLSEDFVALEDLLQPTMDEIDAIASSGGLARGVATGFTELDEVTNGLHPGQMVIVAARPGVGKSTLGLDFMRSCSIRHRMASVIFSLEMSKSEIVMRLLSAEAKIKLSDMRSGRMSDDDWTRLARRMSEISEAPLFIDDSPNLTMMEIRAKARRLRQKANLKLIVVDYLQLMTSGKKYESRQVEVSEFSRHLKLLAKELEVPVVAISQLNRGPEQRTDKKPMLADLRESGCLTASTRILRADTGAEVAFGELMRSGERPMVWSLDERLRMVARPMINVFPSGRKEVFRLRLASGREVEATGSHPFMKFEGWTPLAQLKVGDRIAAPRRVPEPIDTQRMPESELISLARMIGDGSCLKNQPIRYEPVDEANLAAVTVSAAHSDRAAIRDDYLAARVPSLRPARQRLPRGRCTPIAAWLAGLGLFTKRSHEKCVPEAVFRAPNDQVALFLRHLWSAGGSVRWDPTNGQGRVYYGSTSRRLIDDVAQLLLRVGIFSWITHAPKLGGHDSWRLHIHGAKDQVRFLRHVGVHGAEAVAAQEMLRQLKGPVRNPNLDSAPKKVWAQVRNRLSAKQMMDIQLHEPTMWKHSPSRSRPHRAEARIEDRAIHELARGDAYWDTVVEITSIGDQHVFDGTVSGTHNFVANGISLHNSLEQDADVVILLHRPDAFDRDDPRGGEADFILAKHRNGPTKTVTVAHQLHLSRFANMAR
# Vero [6] = test: cells; type: functional, cell-based; settings: Chlorocebus sabaeus
# Protein RecA = biological target: T6, Protein RecA (Mycobacterium tuberculosis, UniProt P9WHJ3); test: Fluorescence Cell-Free Homogeneous Dose Retest to Identify Inhibitors of RecA-Intein Splicing Activity. [Related pubchem assays (depositor defined):AID2097, AID2223, AID489010, AID492950]; type: functional
# T6 sequence (P9WHJ3 whole entry): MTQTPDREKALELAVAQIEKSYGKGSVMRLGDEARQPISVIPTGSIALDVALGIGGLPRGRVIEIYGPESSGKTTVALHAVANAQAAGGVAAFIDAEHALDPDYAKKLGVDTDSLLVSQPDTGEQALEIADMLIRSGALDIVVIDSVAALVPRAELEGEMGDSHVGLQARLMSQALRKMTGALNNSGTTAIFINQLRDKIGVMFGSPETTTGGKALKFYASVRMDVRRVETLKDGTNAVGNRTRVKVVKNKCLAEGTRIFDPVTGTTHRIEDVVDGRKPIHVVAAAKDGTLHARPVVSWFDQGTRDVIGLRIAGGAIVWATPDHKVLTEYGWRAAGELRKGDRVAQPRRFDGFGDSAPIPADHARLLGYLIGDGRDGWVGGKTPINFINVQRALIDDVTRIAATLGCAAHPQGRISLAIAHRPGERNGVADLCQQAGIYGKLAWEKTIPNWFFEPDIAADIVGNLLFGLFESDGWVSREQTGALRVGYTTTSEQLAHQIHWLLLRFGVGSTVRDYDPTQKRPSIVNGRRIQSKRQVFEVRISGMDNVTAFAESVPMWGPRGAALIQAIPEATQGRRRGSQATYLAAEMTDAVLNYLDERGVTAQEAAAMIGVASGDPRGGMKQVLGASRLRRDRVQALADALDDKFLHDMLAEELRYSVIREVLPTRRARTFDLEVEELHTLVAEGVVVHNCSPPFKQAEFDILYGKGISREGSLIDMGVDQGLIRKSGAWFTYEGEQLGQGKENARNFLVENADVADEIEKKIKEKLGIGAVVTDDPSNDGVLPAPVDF
# Vero [7] = test: cells; type: functional; settings: Chlorocebus sabaeus
smiles,measurement,setting,value
COC(=O)c1c(NC(=O)C2CC=CCC2C(=O)O)sc(C)c1C (centres undefined),IC50,Leucine aminopeptidase,4.32 µM (active)
same,IC50,Aspartyl aminopeptidase,> 73.5 µM (not active)
same,IC50,Procathepsin L,> 59.6 µM (not active)
COc1cc2c(cc1C(F)(F)F)N(C(=O)Nc1cc(F)cc(-c3cccnc3)c1)CC2,AC50,Cytochrome P450 2C19 [1],1 µM (inconclusive)
same,AC50,Cytochrome P450 2C19 [2],10 µM (inconclusive)
CCc1cc2ccc(C)cc2nc1SCC(=O)Nc1cc(OC)c(OC)cc1C(=O)O,IC50,Leucine aminopeptidase,< 1 µM (active)
same,IC50,Aspartyl aminopeptidase,> 73.5 µM (not active)
same,IC50,Procathepsin L,> 59.6 µM (not active)
Cc1ccccc1NC(=O)C(=Cc1ccc(C(=O)O)cc1)C(=O)Nc1ccccc1C,CC50,Vero [3],7.39 µM (active)
same,EC50,[4],29 µM (active)
same,AC50,[5],3.66 µM (active)
same,IC50,Vero [6],> 25 µM (active)
same,EC50,Protein RecA,5.08 µM (active)
same,CC50,Vero [7],14.7 µM (active)
